# Results from patent publication US8536196B2, “Substituted 1,3-dioxanes useful as PPAR modulators” (Evolva SA, priority 2007, dated 2013).
# Experiments:
# PPARgamma (h) = target: T1, PPARgamma (h) (Homo sapiens, UniProt P37231); experiment: Human recombinant (E. coli) PPARgamma (h) binding assay
# T1 construct: host or cells: E. coli
# T1 sequence (P37231 1-505): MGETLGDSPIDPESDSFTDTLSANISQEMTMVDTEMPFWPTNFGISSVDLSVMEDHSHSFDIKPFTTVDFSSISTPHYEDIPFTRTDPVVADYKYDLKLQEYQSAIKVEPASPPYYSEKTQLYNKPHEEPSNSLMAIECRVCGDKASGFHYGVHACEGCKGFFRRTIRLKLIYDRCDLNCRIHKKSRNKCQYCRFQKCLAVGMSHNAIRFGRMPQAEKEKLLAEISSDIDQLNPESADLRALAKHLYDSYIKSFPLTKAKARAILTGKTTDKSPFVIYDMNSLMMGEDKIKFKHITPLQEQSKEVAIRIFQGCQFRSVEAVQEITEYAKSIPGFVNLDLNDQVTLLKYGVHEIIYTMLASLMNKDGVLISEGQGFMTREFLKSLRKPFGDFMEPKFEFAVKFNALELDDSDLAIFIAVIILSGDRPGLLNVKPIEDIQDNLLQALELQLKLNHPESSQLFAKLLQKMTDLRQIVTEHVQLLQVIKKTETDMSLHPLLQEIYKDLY
# Procedure: The results are expressed as a percent of control specific binding ((measured specific binding/control specific binding)×100) obtained in the presence of the test compounds. The IC50 values (concentration causing a half-maximal inhibition of control specific binding) and Hill coefficients (nH) were determined by non-linear regression analysis of the competition curves generated with mean replicate values using Hill equation curve fitting (Y=D+[(A D)/(1+(C/C50)nH)], where Y=specific binding, D=minimum specific binding, A=maximum specific binding, C=compound concentration, C50=IC50, and nH=slope factor). This analysis was performed using a software developed at Cerep (Hill software) and validated by comparison with data generated by the commercial software SigmaPlot® 4.0 for Windows® (© 1997 by SPSS Inc.). The inhibition constants (Ki) were calculated using the Cheng Prusoff equation (Ki=IC50/(1+(L/KD)), where L=concentration of radioligand in the assay, and KD=affinity of the radioligand for the receptor).
# KKA^y mice = experiment: Glucose lowering effect in KKAy mouse model; format: in vivo
# Procedure: (§1) 52 male KKA^y mice were obtained commercially (e.g., from Clea Japan) at an age of 6 weeks and put on a high fat diet upon arrival. Individual mice were housed in IVC Type II cages during both the acclimatization and the experimental phase. Both food (high fat diet) and water were supplied ad libitum.
# (§2) Mice were randomized into treatment groups according to their 4-h fasting blood glucose.
# (§3) 4 hours after the last administration, non-fasting conditions.
# (§4) Blood was collected into heparin containing glass capillaries which were subsequently centrifuged in a “Haematokrit 24” centrifuge (Hettich) at 15′200×g for 10 min at room temperature to obtain the hematocrit value.
# (§5) The following serum parameters were determined on a COBAS INTEGRA 800 auto analyzer (Roche Diagnostics, Switzerland) using the reagents and protocols provided by the supplier.
# (§6) All measurements were made on Day 14 of administration, except for the food intake and body weight measurements that were made on Day 12.
# [1] = Glucose lowering effect in KKAy mouse model; format: in vivo; conditions: male, mouse, serum; KKA^y mice, 53 mg/kg BID oral gavage 14 days, 4 hours after the last administration, average ± S.E.M.; read-out: Serum level of the compound
# Procedure: as §1, §2, §3, §4, §5, §6
# [2] = Blood cell analysis at end of thrombosis experiment; format: in vivo, mouse
# Procedure: (§7) The flow in each image is expressed as a percentage of that at the contralateral side, and data are averaged for all 120 images to determine total flow. The same analysis is performed for 10 min intervals (which gives essentially the same information as the area under the curve). […] Flow before treatment is recorded as 100%, and that in occluded arteries as 0%. At the end of the experiment, blood is collected on 0.01M citrate by heart puncture for determination of blood cell counts. Plasma is prepared by centrifugation and stored at −20° C. for determination of drug levels.
# Table VI summarizes the results of blood cell analysis performed on a sample taken at the end of the observation period. (Z)-6-((2S,4S,5R)-2-(2-chlorophenyl)-4-(2-hydroxyphenyl)-1,3-dioxan-5-yl)hex-4-enoic is referred to in Table VI as EV.
# [3] = system: mice (FeCl3 induced femoral artery thrombosis); experiment: FeCl3 arterial thrombosis mouse model (occlusion time, blood flow); format: in vivo
# Procedure: The solutions were diluted 3.3-fold in saline and 100 μl/25 g was injected.
# During the experiments, a soluble potassium salt of the drug was provided, diluted in saline. Of this formulation, 100 μl/25 g was injected i.v. in the tail vein (dose of 100 mg/kg).
# Aspirin is given the same way at a dose of 200 mg/kg. Clopidogrel is administered by oral gavage at a dose of 20 mg/kg at 6-7 hours prior to the experiment. The solutions were coded (except for clopidogrel) and the operator was blinded to the code. The animals assigned to each group were matched for body weight. All mice used were 8-10 weeks old males and were in a 100% Swiss genetic background.
# as §7
# Statistical analysis for differences between two groups is performed by non-parametric Student t-test. Occlusion times >30 min were considered equal to 30 min for statistical analysis. It should be noted that this approach may result in a statistical bias, the more so because the number of experiments is not the same in the different groups. Significance is set at p<0.05.
# mPPARalphaLBD = target: T2, mPPARalphaLBD (Mus musculus, UniProt P23204); experiment: PPARalpha transactivation assay; format: cell-based
# T2 construct: expressed in transfected cells
# T2 sequence (P23204 239-466 limits assumed): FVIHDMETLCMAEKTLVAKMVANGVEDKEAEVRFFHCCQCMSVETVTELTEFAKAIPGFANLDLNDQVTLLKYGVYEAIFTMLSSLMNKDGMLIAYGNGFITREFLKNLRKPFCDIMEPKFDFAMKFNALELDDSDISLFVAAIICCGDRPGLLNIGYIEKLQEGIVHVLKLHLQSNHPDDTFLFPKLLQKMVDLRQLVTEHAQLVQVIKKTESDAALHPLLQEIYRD
# Procedure: This example describes a transactivation assay for determining PPARalpha modulating activity.
# DPD and other ligands are tested for their ability to transactivate PPARalpha essentially as described in Example 22.
# [4] = system: 1.5 μM U-46619-induced platelet aggregation (platelet rich plasma); experiment: TP receptor platelet aggregation - rabbit; format: cell-based, New Zealand Rabbit; conditions: Oryctolagus cuniculus, @ 0.1 mM (printed in the 30 μM column)
# Text: TP Receptor Platelet Aggregation—Rabbit:
# Thrombosis Research 33:277-288
# [5] = 53 mg/kg BID oral gavage 14 days, Day 14, average ± S.E.M.
# [6] = 30 mg/kg vehicle i.v., n = 4, mean ± SEM
# [7] = 100 mg/kg vehicle i.v., n = 9, mean ± SEM
smiles,measurement,setting,value
"COc1ccc(C(=O)NCc2cccnc2)cc1C(=O)NCc1cccnc1 [Picotamide, reference compound]",PPARgamma binding @ 10 μM,PPARgamma (h); @ 10 μM,no binding
"CN(CCOc1ccc(CC2SC(=O)NC2=O)cc1)c1ccccn1 (stereo not shown) [Rosiglitazone, rosiglitazone, reference compound]",Heart weight,"KKA^y mice; 5 mg/kg BID oral gavage 14 days, Day 14, average ± S.E.M., 5 mg/kg",increased
"O=C(O)CC/C=C\C[C@@H]1CO[C@H](c2ccccc2Cl)O[C@@H]1c1ccccc1O (single isomer, unassigned) [Compound B]",concentration at 4 h,[1],0.161 ± 0.06 µg/mL
same,ALP,KKA^y mice; [5],21.5 ± 1.6 dU/L
same,ALT,KKA^y mice; [5],5.1 ± 0.6 dU/L
same,AST,KKA^y mice; [5],7.7 ± 1.0 dU/L
same,Hematocrit,KKA^y mice; [5],40.1 ± 1.6%
same,Serum Glucose,KKA^y mice; [5],decreased
same,FFA,"KKA^y mice; 53 mg/kg BID oral gavage 14 days, Day 14, average ± S.E.M., listed as (Z)-6-(2S,4S,5R)-2-(2-chlorophenyl)-4-(2-hydroxyphenyl)-1,3-dioxan-5-yl(hex-4-e, 53 mg/kg)",slightly decreased
same,Food Intake,"KKA^y mice; 53 mg/kg BID oral gavage, Day 12, average ± S.E.M.",5.0 ± 0.6 g/day
same,Hematocrit,[2]; [6],62 ± 7.3%
same,Hemoglobin,[2]; [6],15 ± 0.28 g/dL
same,Lymphocytes,[2]; [6],42 ± 4.7%
same,Neutrophils,[2]; [6],56 ± 5.3%
same,Platelets,[2]; [6],1020 ± 89 ×10^3/μl
same,Red blood cells,[2]; [6],9.1 ± 0.26 ×10^6/μl
same,White blood cells,[2]; [6],0.95 ± 0.17 ×10^3/μl
same,Hematocrit,[2]; [7],70 ± 3.5%
same,Hemoglobin,[2]; [7],15 ± 0.30 g/dL
same,Lymphocytes,[2]; [7],58 ± 11%
same,Neutrophils,[2]; [7],34 ± 12%
same,Platelets,[2]; [7],895 ± 46 ×10^3/μl
same,Red blood cells,[2]; [7],9.2 ± 0.17 ×10^6/μl
same,White blood cells,[2]; [7],1.5 ± 0.46 ×10^3/μl
same,occlusion time,[3]; 30 mg/kg in vehicle (DMSO/PEG 400) i.v.,"slightly prolongs the occlusion time as compared to aspirin (p=0.024), but has no effect as compared to vehicle"
same,total blood flow,[3]; 30 mg/kg in vehicle i.v.,no effect
same,"blood flow, time window 0-10 min",[3]; 100 mg/kg in vehicle i.v.,significantly higher flow as compared to aspirin (p=0.0002) but not as compared to vehicle only (p=0.11)
same,total blood flow,[3]; 100 mg/kg in vehicle i.v.,"improved total blood flow as compared to aspirin (p=0.055), but not as compared to vehicle (p=0.45)"
"CC(C)(Sc1ccc(CCN(CCCCC2CCCCC2)C(=O)NC2CCCCC2)cc1)C(=O)O [GW7647, reference compound]",increase in PPARalpha transactivation,mPPARalphaLBD,over 2 fold
"O=C(O)CC/C=C\C[C@H]1COC(c2ccccc2Cl)O[C@H]1c1ccccc1O (single isomer, unassigned) [Compound A]",PPARgamma binding @ 30 μM,PPARgamma (h); @ 30 μM,no binding
same,inhibition at 100 µM,[4],15%
